Consider one compound from patent US5049560A, “Sulfonyl derivatives of thieno-triazolo-diazepines useful as anti-PAF and anti-ischemic agents” (priority 1989, dated 1991).

The structures appear in SMILES notation. pIC50: −log10 of the molar value.

A short description of one data set: Solubility. Type of data set: physicochemical. How it is done:
Yield 38 g (85%) of an orange powder melting at 80° C. (Tottoli) insoluble in water at room temperature but soluble in DMSO.

A short description of a further data set: Toxicity on mice. The conditions noted are these: mouse, in vivo, IP. An excerpt: None of these compounds of this invention was toxic per os at dose of 1 g/kg on mice.
None of the compounds was toxic IP at the dose of 1 g/kg on mice with the exception of the examples 1, 5 and 10 for which the LD 50 was comprised between 0.5 and 1 g/kg.

Data set [1] has as its system platelet aggregation induced by PAF. As to the kind of experiment: Inhibition of platelet aggregation induced by PAF. The data set is classed as cell-based, New Zealand rabbits. The note with it: Oryctolagus cuniculus, rabbit platelets, aggregometer at 57° C. [sic]. The protocol:
1) Inhibition of platelet aggregation induced by PAF
This experimentation was conducted according to the method of R. KINLOUGH. RATHBONE, J. P. CAZENAVE, M. PACKHAM and F. MUSTARD, Lab. Invest. 48, 98, 1980. In this test, New Zealand rabbits were used (male New Zealand rabbits of an average weight of 5 kg).
The determinations are made on a chrono-log Coultronics aggregometer, at […] coupled with a graphic recorder; the results of these determinations (in molecular concentration) are reported on the table I on the central column.

One may read the LD50 as the dose at which mortality reaches 50%. A word on the pIC50: it is the negative decadic logarithm of the IC50, by convention in mol/L. As for `CCCCCCCCCCCCCCCCS(=O)(=O)N1CCc2c(sc3c2C(c2ccccc2Cl)=NCc2nnc(C)n2-3)C1` [Example 1, 6-(2-chlorophenyl)-9-hexadecylsulphonyl-7,8,9,10-tetrahydro-1-methyl 4H-pyrido [4',3':4,5] thieno [3,2-f] 1,2,4-triazolo [4,3-a] 1,4-diazepine], the “solubility in DMSO” value in the data set “Solubility” (DMSO) is “soluble”. Also, in the data set “Solubility” (water, room temperature), the solubility in water entry is listed as “insoluble”. The LD50 in the data set “Toxicity on mice” lay within 500 to 1000 mg/kg. The pIC50 in data set [1] was 7.02.
